Test results taken from the NIST ThermoML archive (doi:10.1021/acs.jced.5b00882).
Numbers after ± are expanded uncertainties.

Assay: not given
Settings: 298.15 K; 101.33 kPa; Liquid; Pycnometric method
CCO [ethanol] showed a mass density of 785.3 ± 1.5 kg/m3.
Compound CCCCCCCO [heptan-1-ol] has a mass density of 819.2 ± 1.5 kg/m3.
CCCCCCCCO [octan-1-ol] showed a mass density of 821.6 ± 1.5 kg/m3.
For CCCCO [butan-1-ol], the mass density was 806 ± 1.5 kg/m3.
In the case of CCCCCCO [hexan-1-ol], the mass density is reported as 815.7 ± 1.5 kg/m3.
CO [methanol] gave a mass density of 786.6 ± 0.6 kg/m3.
For CCCO [propan-1-ol], the mass density was 799.7 ± 1.5 kg/m3.
In the case of CCCCCO [pentan-1-ol], the mass density is reported as 811.4 ± 1.5 kg/m3.

Same assay, conditions: Crystal; DSC
In the case of CNC(=O)NC [1,3-dimethylurea], the Triple point temperature is reported as 376.35 ± 0.93 K.

Assay: Molar enthalpy of transition or fusion
Settings: Crystal; DSC
With CNC(=O)NC [1,3-dimethylurea] the “Molar enthalpy of transition or fusion” value was 3.05 ± 0.0932 kcal/mol.
